# Publication PMC9905601, “Archaeal DNA-import apparatus is homologous to bacterial conjugation machinery” (Nature Communications, 2023)
# Biological target: T1, P. calidifontis protein Pcal_0765, TedC (Pyrobaculum calidifontis, UniProt A3MU74)
# T1 sequence (A3MU74 23-153): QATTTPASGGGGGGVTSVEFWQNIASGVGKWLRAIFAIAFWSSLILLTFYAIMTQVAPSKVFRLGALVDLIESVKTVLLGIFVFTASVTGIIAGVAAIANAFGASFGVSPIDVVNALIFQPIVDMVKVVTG
# Test: cryo-EM structure of native pilus, […] Å
# Type: binding
compound,measurement,value
C[C@@H]1CCC[C@H](C)CCC[C@@H](C)CC[C@H](C)CCC[C@@H](C)CCC[C@H](C)CCC[C@H](C)CCOC[C@H](CO)OCC[C@H](C)CCC[C@H](C)CCC[C@H](C)CCC[C@@H](C)CC[C@H](C)CCC[C@@H](C)CCC[C@H](C)CCC[C@H](C)CCOC[C@H](CO)OCC[C@H](C)CCC1 [GDGT-0],"cryo-EM structure of native pilus, 4.0 Å","we have modeled the simplest form, GDGT-0, into the cryo-EM density"
